{"source": "patent US8591876B2", "about": "“Methods of decreasing sebum production in the skin” (priority 2010, dated 2013)", "key": {"human sebocytes (SEB-1)": {"test_system": "human sebocytes (SEB-1)", "assay": "Cytotoxicity to human sebocytes (SEB-1), Cell Titer-Blue Cell Viability Assay", "assay_type": "cell-based", "conditions": "in reference to cells incubated with media alone"}, "[1]": {"test_system": "normal human keratinocytes (NHEK)", "assay": "Cytotoxicity to normal human keratinocytes (NHEK), Cell Titer-Blue Cell Viability Assay", "assay_type": "cell-based", "conditions": "in reference to cells incubated with media alone"}}}
{"smiles": "N[C@@H](CCC(=O)N[C@@H](CSN=O)C(=O)NCC(=O)O)C(=O)O", "note": "[GSNO, S-nitrogluthione]", "values": [{"measurement": "% SEB-1 Killed", "setting": "human sebocytes (SEB-1); 0.12 mg/ml, 24 hr", "result": 6, "unit": "%"}, {"measurement": "% SEB-1 Killed", "setting": "human sebocytes (SEB-1); 0.12 mg/ml, 48 hr", "result": 11, "unit": "%"}, {"measurement": "% SEB-1 Killed", "setting": "human sebocytes (SEB-1); 0.12 mg/ml, 72 hr", "result": 19, "unit": "%"}, {"measurement": "% SEB-1 Killed", "setting": "human sebocytes (SEB-1); 0.6 mg/ml, 24 hr", "result": 48, "unit": "%"}, {"measurement": "% SEB-1 Killed", "setting": "human sebocytes (SEB-1); 0.6 mg/ml, 48 hr", "result": 68, "unit": "%"}, {"measurement": "% SEB-1 Killed", "setting": "human sebocytes (SEB-1); 0.6 mg/ml, 72 hr", "result": 67, "unit": "%"}, {"measurement": "% SEB-1 Killed", "setting": "human sebocytes (SEB-1); 1.2 mg/ml, 24 hr", "result": 85, "unit": "%"}, {"measurement": "% SEB-1 Killed", "setting": "human sebocytes (SEB-1); 1.2 mg/ml, 48 hr", "result": 97, "unit": "%"}, {"measurement": "% SEB-1 Killed", "setting": "human sebocytes (SEB-1); 1.2 mg/ml, 72 hr", "result": 98, "unit": "%"}, {"measurement": "% NHEK Killed", "setting": "[1]; 0.12 mg/ml, 24 hr", "result": 4, "unit": "%"}, {"measurement": "% NHEK Killed", "setting": "[1]; 0.12 mg/ml, 48 hr", "result": 5, "unit": "%"}, {"measurement": "% NHEK Killed", "setting": "[1]; 0.12 mg/ml, 72 hr", "result": 15, "unit": "%"}, {"measurement": "% NHEK Killed", "setting": "[1]; 0.6 mg/ml, 24 hr", "result": 8, "unit": "%"}, {"measurement": "% NHEK Killed", "setting": "[1]; 0.6 mg/ml, 48 hr", "result": "−11", "unit": "%"}, {"measurement": "% NHEK Killed", "setting": "[1]; 0.6 mg/ml, 72 hr", "result": "−3", "unit": "%"}, {"measurement": "% NHEK Killed", "setting": "[1]; 1.2 mg/ml, 24 hr", "result": 34, "unit": "%"}, {"measurement": "% NHEK Killed", "setting": "[1]; 1.2 mg/ml, 48 hr", "result": 53, "unit": "%"}, {"measurement": "% NHEK Killed", "setting": "[1]; 1.2 mg/ml, 72 hr", "result": 44, "unit": "%"}]}
